Reference: US10525100B2, “ATF5 peptide variants and uses thereof” (Sapience Therapeutics, Inc., priority 2018, dated 2020)
Ends that are not written are not given here.

Assays:
AML14 cells = assay type: cell-based, human
Experimental: (§1) ST-13 was further examined in various human cancer cell lines, as was a second retro-inverso variant, ST-14. Suspension cells (HL60, AML14, or SET2) were set at a density of 3.5×10^3 cells/well in 150 μL of RPMI+1.5% fetal bovine serum (FBS) in a tissue culture-treated 96 well dish. ATF5 peptide, reconstituted at a concentration of 10 mg/mL in 20 mM His, pH 7.5, was added to each well at a volume of 50 μL to a final concentration range of 0-80 μM. Cells were incubated with peptide for 48 hours at 37° C. Cell viability was quantified by flow cytometry using an Abcam Annexin V FITC apoptosis detection kit. Briefly, cells were washed with PBS and resuspended in 1× assay buffer containing Annexin V FITC and propidium iodide (PI). Cells were analyzed by BD Accuri C6 Plus flow cytometer to detect Annexin V-FITC binding (Ex=488 nm; Em=530 nm) using FITC signal detector, and to detect PI staining using the phycoerythrin emission signal detector. Percentage of Annexin V^low and PI^low were quantified and presented as % Viability. EC50 values were calculated using GraphPad Prism v.7 XML.

SET2 cells = assay type: cell-based, human
Experimental: as §1

MCF7 cells = assay type: cell-based, human
Experimental: (§2) Additionally, adherent A375, MCF7, U251, DU145, U87, and A549 cells were set at a density of 3.5×10^3 cells/well in 200 μL of media on day −1. On day 0, media was removed and replenished with 150 μL of fresh media, and cells were treated with ATF5 peptide as described. Following a 48-hour incubation at 37° C., floating cells were collected, adherent cells were washed with Dulbecco's Phosphate Buffered Saline (DPBS), dissociated from the dish with 50 μL 2.5% trypsin at RT, and combined with floating cells. Cell viability was determined as described above for suspension cells or by MTT assay (MCF7 cells). Alternatively, cells were gently removed from the cell culture plate following trypsinization with 2.5% trypsin, and cell viability was quantified by flow cytometry using an Abcam Annexin V FITC apoptosis detection kit, as described above.

A375 cells = assay type: cell-based, human
Experimental: as §2

HL60 cells = experiment: HL60 cell viability assay (Annexin V FITC / PI flow cytometry); assay type: cell-based, human; conditions: for EC50: 48 h; for cytotoxic activity compared with another peptide: HL60 cell viability, FIGS. 2-5, in words
Experimental: HL60 PML suspension cells were set at a density of 3.5×10^3 cells/well in 150 μL of RPMI+1.5% fetal bovine serum (FBS) in a 96 well dish. ST-3, reconstituted at a concentration of 10 mg/mL in 20 mM His, pH 7.5, was added to each well at a volume of 50 μL to a final concentration range of 0-80 μM. Cells were incubated with ST-3 for 48 hours at 37° C. Cell viability was quantified by flow cytometry using an Abcam Annexin V FITC apoptosis detection kit. Briefly, cells were washed with PBS and resuspended in 1× assay buffer containing Annexin V FITC and propidium iodide (PI). Annexin V detects apoptotic cells, and PI stains dead cells. After staining, apoptotic cells show green fluorescence, dead cells show red and green fluorescence, and live cells show little or no fluorescence. Cells were selected for analysis based on forward scatter (FSC) vs. side scatter (SSC), and analyzed by BD Accuri C6 Plus flow cytometer to detect Annexin V-FITC binding (Ex=488 nm; Em=530 nm) using FITC signal detector and PI staining by the phycoerythrin emission signal detector. Percentage of Annexin V^low and PI^low were quantified and presented as % Viability.
Lyophilized ST-3 or ST-3 with glycine (ST-4) or alanine (ST-5) substituted for cysteine at amino acid position 21 was freshly reconstituted in histidine buffer to a stock solution of 5 mg/mL and added to cells at a final concentration range of 0-40 μM. Cells were incubated with ATF5 peptide for 48 hours prior to quantification of cell viability.
as §1

[1] = system: wide range of tumor cell types; experiment: Cytotoxic activity in various human cancer cell lines; assay type: cell-based; conditions: in words; FIGS. 6A-6E, 7A-7E
Experimental: as §1, with “Briefly, cells were washed with PBS and resuspended in 1× assay buffer containing Annexin V FITC and propidium iodide (PI).” left out, “XML. […] Cell viability was determined as described above for suspension cells or by MTT assay (MCF7 cells). Alternatively, cells were gently removed from the cell culture plate following trypsinization with 2.5% trypsin, and cell viability was quantified by flow cytometry using an Abcam Annexin V FITC apoptosis detection kit, as described above.” for “XML.”

Molecule	EC50 (HL60 cells) [µM]	cytotoxic activity compared with another peptide (HL60 cells)	also measured
RQIKIWFQNRRMKWKKLEGECQGLEARNRELKERAESV [ST-3, reference compound]	–	–	EC50 (AML14 cells): 29.6 µM; EC50 (SET2 cells): 98.2 µM; EC50 (MCF7 cells): 52.9 µM; EC50 (A375 cells): 21.8 µM
RQIKIWFQNRRMKWKKLEGECQGLEARNRELKERAEAV [ST-6]	11.2	comparable activity to ST-3	–
RQIKIWFQNRRMKWKKLEGEAQGLEARNRELKERAESV [ST-5]	~38	attenuated but not ablated	–
RQIKIWFQNRRMKWKKLEGEGQGLEARNRELKERAESV [ST-4]	~35	attenuated but not ablated	–
RQIKIWFQNRRMKWKKLEGRCQGLRAELRELEERAEAV [ST-10]	2.2	comparable to that of ST-9	–
CC[C@@H](C)[C@@H](NC(=O)[C@@H](CCCCN)NC(=O)[C@H](NC(=O)[C@@H](Cc1c[nH]c2ccccc12)NC(=O)[C@@H](Cc1ccccc1)NC(=O)[C@@H](CCC(N)=O)NC(=O)[C@@H](CC(N)=O)NC(=O)[C@@H](CCCNC(=N)N)NC(=O)[C@@H](CCCNC(=N)N)NC(=O)[C@@H](CCSC)NC(=O)[C@@H](CCCCN)NC(=O)[C@@H](Cc1c[nH]c2ccccc12)NC(=O)[C@@H](CCCCN)NC(=O)[C@@H](CCCCN)NC(=O)[C@@H](CC(C)C)NC(=O)[C@@H](CCC(=O)O)NC(=O)CNC(=O)[C@@H](CCCNC(=N)N)NC(=O)[C@@H](C)NC(=O)[C@@H](CCC(N)=O)NC(=O)CNC(=O)[C@@H](CC(C)C)NC(=O)[C@@H](CCCNC(=N)N)NC(=O)[C@@H](C)NC(=O)[C@@H](CCC(=O)O)NC(=O)[C@@H](CC(C)C)NC(=O)[C@@H](CCCNC(=N)N)NC(=O)[C@@H](CCC(=O)O)NC(=O)[C@@H](CC(C)C)NC(=O)[C@@H](CCC(=O)O)NC(=O)[C@@H](CCC(=O)O)NC(=O)[C@@H](CCCNC(=N)N)NC(=O)[C@@H](C)NC(=O)[C@@H](CCC(=O)O)NC(=O)[C@@H](C)NC(=O)[C@H](N)C(C)C)[C@H](C)CC)C(=O)N[C@H](CCC(N)=O)C(=O)N[C@H](CCCNC(=N)N)C(=O)O [ST-13]	4.8	–	EC50 (A375 cells): 1.4 µM; cytotoxic activity in tumor cell types [1]: significant cytotoxic activity
RQIKIWFQNRRMKWKKLEGRCQGLRAENRELEERAESV [ST-9]	2	significantly increased over that of ST-3	–
RQIKIWFQNRRMKWKKLEGRAQGLRAELRELEERAEAV [ST-11]	4.2	improved cytotoxic activity over ST-3	–
